What follows are compounds tested against Hexokinase HKDC1 [W721R] (Homo sapiens, UniProt Q2TB90, W721R) (assay: inhibition of HKDC1 glucose phosphorylation – biochemical, W721R variant, dose response (AID 504729)).
Hexokinase HKDC1 [W721R], sequence (Q2TB90 whole entry W721R): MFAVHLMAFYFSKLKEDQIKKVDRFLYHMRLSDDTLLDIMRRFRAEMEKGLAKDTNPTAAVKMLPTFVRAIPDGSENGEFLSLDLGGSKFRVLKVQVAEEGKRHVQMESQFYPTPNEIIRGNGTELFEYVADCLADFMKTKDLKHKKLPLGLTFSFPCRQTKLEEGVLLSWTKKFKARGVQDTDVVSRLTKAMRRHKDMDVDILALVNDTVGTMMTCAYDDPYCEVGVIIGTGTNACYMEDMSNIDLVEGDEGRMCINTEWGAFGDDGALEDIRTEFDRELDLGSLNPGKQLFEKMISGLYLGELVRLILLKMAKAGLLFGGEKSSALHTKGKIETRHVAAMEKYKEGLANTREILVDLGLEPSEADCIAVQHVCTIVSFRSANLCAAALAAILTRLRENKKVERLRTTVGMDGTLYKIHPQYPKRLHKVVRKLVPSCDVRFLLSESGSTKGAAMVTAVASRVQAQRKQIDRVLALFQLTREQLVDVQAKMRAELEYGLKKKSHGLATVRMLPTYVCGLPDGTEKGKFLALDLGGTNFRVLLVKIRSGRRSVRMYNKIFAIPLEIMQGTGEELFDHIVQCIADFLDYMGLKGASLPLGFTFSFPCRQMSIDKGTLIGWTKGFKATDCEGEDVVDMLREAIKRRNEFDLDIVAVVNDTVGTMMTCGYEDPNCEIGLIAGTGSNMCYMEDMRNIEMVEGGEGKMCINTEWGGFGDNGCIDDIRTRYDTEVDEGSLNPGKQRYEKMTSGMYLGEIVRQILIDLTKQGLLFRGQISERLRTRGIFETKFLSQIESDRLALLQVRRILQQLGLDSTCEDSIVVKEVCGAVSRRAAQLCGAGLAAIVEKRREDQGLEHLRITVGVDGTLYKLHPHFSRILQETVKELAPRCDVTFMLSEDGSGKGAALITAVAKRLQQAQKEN

IC50 [µM] | Structure (SMILES)
28.5 | Cc1ccc(/N=C/C2=CC(Cc3ccccc3Cl)C=C([N+](=O)[O-])C2=O)c(O)c1 (stereo not drawn)
21.5 | COc1ccc(Cn2c(O)c3[nH]cccc-3c2=O)cc1
18.5 | CC(Nc1cc(O)c2cccnc2c1O)C(=O)c1ccccc1 (stereo not drawn)
25.3 | O=C(/C=C/c1ccco1)NCC(=O)NNC1=c2ccccc2=NC1=O [MLS001075666]
17.4 | N#CC(C(=O)CCl)c1nc2c(s1)CCc1ccccc1-2 (stereo not drawn) [MLS001171530]
7.92 | Oc1c(Cl)c(N=CCc2ccccc2)c(O)c2ccccc12 [MLS002608293]
11.6 | Cc1ccc(Nc2c3[nH]cccc-3c(=O)n2-c2ccccc2C)cc1C [SMR000028201]

The remaining lines, values behind:

Structure (SMILES) | IC50 [µM]
Oc1ccc(CN=Nc2ncc(Br)cn2)c(O)c1 | 1.68
COC1=CC(/C=C(\C#N)c2nc3ccc(C)cc3[nH]2)C=C([N+](=O)[O-])C1=O (stereo not drawn) [(2Z,3E)-3-(3-methoxy-5-nitro-4-oxocyclohexa-2,5-dien-1-ylidene)-2-(5-methyl-1,3-dihydrobenzimidazol-2-ylidene)propanenitrile] | 16.1
Cc1[nH]c2c(=O)c3c(c(=O)c=2[nH]c1C)C1C=CC3CC1 [MLS002701599] | 2.23
Cc1cccc2c1=NC(=O)C=2NNC(=O)c1ccc(NS(=O)(=O)c2cccs2)cc1 [SMR001246714] | 15.5
O=C1C=CC(CN=Nc2ccc([N+](=O)[O-])cn2)C(O)=C1 (stereo not drawn) [SMR001527138] | 6.23
C=c1c(NC(C)=O)c(O)c2nc3n(c2c1O)CCC=3OC(=O)COC [SMR001565176] | 2.18
